Usually IC50 stands for the concentration needed to halve the response being measured.

The assay deals with M. tuberculosis H37Rv growth inhibition. The experiment in a line: Confirmatory growth inhibition assay against Mycobacterium tuberculosis H37Rv, potency (AID 1949).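 Further: bacteria grown 7 days with compound before Alamar blue readout.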

In brackets after ≈: the same amount, converted by molar mass. Results filed as inconclusive are left out. Activity calls are given as the source filed them. How the calls were made is not given here.

Take `O=c1[nH]c(/C=C/c2cccc3ccccc23)nc(O)c1[N+](=O)[O-]`: the IC50 is 2.8 µg/mL (≈ 9.05 µM). Take `CC1CCCN(CCC(=O)c2ccc(Br)cc2)C1` (stereo unspecified): the IC50 was 2.8 µg/mL (≈ 9.03 µM). `Cc1ccc(C(=O)NC(=S)Nc2cccc(NC(=O)c3cccs3)c2)c(C)c1`: the IC50 is 6.96 µg/mL (≈ 17 µM). Regarding `CSc1nsc(SCC(=O)N2CCc3ccccc32)n1`, the IC50 was 12 µg/mL (≈ 37 µM). Take `Cc1cccc(N2CCN(c3ncnc4sc5c(c34)CCCC5)CC2)n1`: the IC50 was 2.26 µg/mL (≈ 6.18 µM). Consider `Cc1cc(O)ccc1N1C(=O)c2cccc3c([N+](=O)[O-])ccc(c23)C1=O`, for which the IC50 was 21.3 µg/mL (≈ 61.1 µM). With `O=S1(=O)C=C(Sc2nnc(-c3ccccc3)o2)c2ccccc21`, the IC50 is 0.31 µg/mL (≈ 0.905 µM). In the case of `O=C(Nc1nc(-c2ccccc2)c(-c2ccccc2)o1)c1ccc(F)cc1`, the IC50 is less than 0.1 µg/mL.

Consider `CCOC(=O)COc1ccc2c(C)c(CC(=O)OC)c(=O)oc2c1`, for which the IC50 was 35 µg/mL (≈ 105 µM). Regarding `O=C(Nc1cccc(C(F)(F)F)c1)N1CCN(c2cccc(C(F)(F)F)c2)CC1`, the IC50 is 5.09 µg/mL (≈ 12.2 µM). Turning to `CCCCc1ccc(N/C(N)=N\c2nc(C)cc(C)n2)cc1`, the IC50 is 23.3 µg/mL (≈ 78.2 µM).

Consider `COC(=O)c1ccc(COC(=O)c2ccccc2Cl)cc1`, for which the half-maximal inhibitory concentration (IC50) is 1.69 µg/mL (≈ 5.55 µM). The same measure for `Cc1ccc(-c2csc(Nc3ccc(S(N)(=O)=O)cc3)n2)cc1`: 2.52 µg/mL (≈ 7.29 µM); for `O=S1(=O)C=CC2ON=C(c3ccc(Cl)cc3)C21` (stereo unspecified): 1.11 µg/mL (≈ 4.12 µM); for `Cc1ccc(C)c(-c2nn(-c3cc(N4CCN(C)CC4)ccc3[N+](=O)[O-])c(=O)c3ccccc23)c1`: 1.76 µg/mL (≈ 3.75 µM). `CC1CN(c2ccc([N+](=O)[O-])cc2)CCN1C(=O)c1cccc(Br)c1` (stereo unspecified): the IC50 was 2.83 µg/mL (≈ 7 µM). For `O=c1cc(-c2ccccc2)nc2c(-c3cccc4ccccc34)c(Cc3ccccc3)[nH]n12` the value was 41.9 µg/mL (≈ 98.1 µM); for `O=C(Nc1ccc(Br)c(Cl)c1)c1ccc(F)cc1`, 15.7 µg/mL (≈ 47.8 µM). For `Cc1ccc(NC(=O)c2ccc(N3CCN(C)CC3)c([N+](=O)[O-])c2)cc1Cl`, the IC50 was 2.22 µg/mL (≈ 5.71 µM). Regarding `CCOC(=O)Cc1c(C)nc2c(-c3ccc(Cl)cc3)c[nH]n2c1=O`, the IC50 was 1.95 µg/mL (≈ 5.64 µM). Take `COc1ccc(N2CCN(c3ncnc4sc5c(c34)CCCC5)CC2)cc1`: the IC50 is > 50 µg/mL (inactive). With `CC(C)(C)NCCCCOc1ccc(Cl)cc1C(C)(C)C`, the IC50 was 3.77 µg/mL (≈ 12.1 µM).

With `CCc1nccn1S(=O)(=O)c1ccccc1[N+](=O)[O-]`, the IC50 was > 50 µg/mL (inactive). For the molecule `COc1cc(NC(=O)c2cc3ccccc3o2)ccc1NC(=O)c1ccccc1Cl`, the IC50 is 2.31 µg/mL (≈ 5.49 µM). Regarding `CC(=O)c1cccc(NC(=S)NC(=O)c2ccc(C(C)(C)C)cc2)c1`, the half-maximal inhibitory concentration (IC50) is 12.5 µg/mL (≈ 35.3 µM). On to `CCC(C)NCCCOc1ccc(Cl)c2ccccc12` (stereo unspecified), for which the IC50 was 2.06 µg/mL (≈ 7.06 µM). With `CCCCn1c(O)c(/C=C2\C=CC=N2)c(=O)[nH]c1=O`, the IC50 was less than 0.1 µg/mL. `C#CCOc1c(Br)cc(/C=C/[N+](=O)[O-])cc1OC`: the IC50 was 38.2 µg/mL (≈ 122 µM). With `COc1cccc(OC)c1C(=O)Nc1ccc(Cl)c(-c2nc3ccccc3s2)c1`, the IC50 is 1.49 µg/mL (≈ 3.51 µM). Turning to `CC(C)(C)c1cnc(NC(=O)c2ccccc2O)s1`, the IC50 was 1.06 µg/mL (≈ 3.84 µM).

Regarding `O=C(NCc1ccc(Cl)c(Cl)c1)C(Cl)Cl`, the IC50 is 10.6 µg/mL (≈ 37.1 µM).

Regarding `O=C(Nc1nc2c(s1)CCCC2)c1ccc(Br)s1`, the IC50 is 0.62 µg/mL (≈ 1.81 µM). The same measure for `CC1=CC(C)(C)N2C(=O)C(=O)c3cc(OC(=O)c4ccccc4)cc1c32`: > 50 µg/mL (inactive). For `CSc1ccc(C(CC(=O)c2ccccc2)Nc2ccc(F)cc2)cc1` (stereo unspecified), the IC50 was 1.47 µg/mL (≈ 4.02 µM). Turning to `Cc1cnc(Nc2cccc(Cl)c2)s1`, the IC50 is 14.3 µg/mL (≈ 63.7 µM).

With `Cc1sc(NC(=O)c2cc3ccccc3oc2=O)c(C(=O)OC(C)C)c1C`, the IC50 was 0.66 µg/mL (≈ 1.71 µM). For `CC(C)OC(=O)C(C)Oc1ccc(C(=O)NCCc2ccccc2)cc1` (stereo unspecified) the value was 48.3 µg/mL (≈ 136 µM). The same measure for `O=C1C(=O)N(Cc2ccccc2Cl)c2ccc(Cl)cc21`: 9.36 µg/mL (≈ 30.6 µM). Regarding `COc1ccc(OC(C)C(=O)Nc2ccc(Cl)cc2C)cc1` (stereo unspecified), the IC50 is 0.62 µg/mL (≈ 1.94 µM). The same measure for `CC1CCCN(Cc2c(O)ccc3c(=O)c(-c4nc5ccccc5s4)c(N)oc23)C1` (stereo unspecified): 23.6 µg/mL (≈ 55.9 µM); for `CCc1nc2sc(C(=O)NCc3ccc(F)cc3)c(N)c2c(C(F)(F)F)c1C`: 2.61 µg/mL (≈ 6.34 µM); for `CCOC(=O)c1c(NC(=O)c2c(F)c(F)c(F)c(F)c2F)sc(C(N)=O)c1C`: less than 0.1 µg/mL. `COc1ccc(OCCC(=O)Nc2nc(C3CCCCC3)cs2)cc1`: the IC50 is 25.5 µg/mL (≈ 70.8 µM). For `Cc1ccc(Cl)cc1N1CCN(CC(O)COC2CC(C)CC(C)(C)C2)CC1` (stereo unspecified) the value was 7.82 µg/mL (≈ 19.1 µM); for `CCOC(=O)c1ccc(NC(=S)Nc2ccc(F)c(Cl)c2)cc1`, 0.28 µg/mL (≈ 0.794 µM). For `COc1ccccc1C(=O)Nc1ccc2oc(-c3cccc(Cl)c3)nc2c1` the value was > 50 µg/mL (inactive). As to `COc1ccc(CCNC(=O)c2ccc(C#CC(C)(C)O)s2)cc1`, the half-inhibitory concentration (IC50) was less than 0.1 µg/mL. In the case of `CCn1c(NC(=S)Nc2ccccc2)nc2ccccc21`, the IC50 was > 50 µg/mL (inactive). As for `CCOC(=O)c1c(NC(=O)CN2CCN(CCO)CC2)sc2c1CCC(C)C2` (stereo unspecified), the IC50 was 7.17 µg/mL (≈ 17.5 µM).

On to `CC(C)(C)NCCCOc1ccc(Cl)cc1C(C)(C)C`, for which the IC50 is 23.3 µg/mL (≈ 78.2 µM). For `CCOC(=O)c1c(-c2ccccc2)oc2ccc(OC(=O)c3cccs3)cc12`, the IC50 was > 50 µg/mL (inactive).

For the origin of these results see PubChem BioAssay AID1949 (Southern Research Institute, 2009).
